Data from EP1228058B1, “BENZOPYRANYL GUANIDINE DERIVATIVES, PROCESS FOR PREPARATION THEREOF, AND PHARMACEUTICAL COMPOSITIONS CONTAINING THEM” (Dongbu Hannong Chemical Co., Ltd., priority 1999, dated 2001).

What was measured:
[1] = tested on: ischemic heart models of rats; experiment: Heart protective (anti-ischemic) activity in ischemic heart models of anesthetized rats; type: in vivo; details: 45 min occlusion, 90 min reperfusion
Description: Male rats (350-450 g, obtained from the Experimental Animal Team of the Korea Research Institute of Chemical Technology) were anesthetized by the intraperitoneal injection of pentobarbital at a dose of 75 mg/kg. After trachetomy, the rats were rendered to respire artificially at a rate of 60/min with a stroke volume of 10 ml/kg. Cannulars were inserted into the fermoral vein and the fermoral artery and used for drug administration and blood pressure measurement, respectively.
In the ischemic myocardium damage models, the body temperature has an important influence on the results. To avoid the change in the body temperature, a body temperature measuring probe was inserted into the rectum of each rat and the body temperature was constantly kept at 37 °C with the aid of a homeothermic blanket control unit.
Afterwards, during testing, a continuous measurement was made of the mean arterial blood pressures and heart rates from the rats. For the measurement of the blood pressure, a pressure transducer, such as that manufactured by Grass Ins., MA, U.S.A., identified as Model Statham P23XL, was used. The heart rate was measured by a tachometer, such as that manufactured by Gould Inc., OH, U.S.A., identified as Biotachometer. In addition, all of the changes occurring were continuously recorded through the Gould 2000 chart recorder, manufactured by Gould Inc.
The left coronary artery was occluded according to the Selye H. method as follows. The rats underwent a left thoracotomy operation for partial opening of the chest and the right-side chest was pressurized by the middle finger of the left hand to push the heart out. Immediately after the left anterior descending coronary artery hereinafter referred to as (LAD) was carefully stitched using a suture needle with 5-0 silk ligature, the heart was then repositioned in the thoracic cavity while both ends of the ligature were situated outside. The opposite ligature ends were passed through a PE tube (PE100, 2.5 cm) and allowed to stand loose for 20 min for stabilization. Via the cannula inserted into the femoral vein, vehicles or drugs were administered into the rats which were rendered to stand for 30 min in order to sufficiently elicit the efficacies of the drugs. BMS-180448 was used as a control drug and the i.v.administration dose was 0.3 mg/kg for all test drugs of interest and the control drug.
Next, the PE tube which had the doubled strands of the ligature passed therethrough was pushed toward the heart and then, set upright by tightly pulling end regions of the ligature with a hemostatic pincette while pressing the coronary artery. The PE tube was allowed to stand for 45 min for the occlusion of the coronary artery, followed by the removal of the hemostatic pincette and then, by the reperfusion for 90 min.
After the reocclusion of the coronary artery in accordance with the above procedure, the rats were administered with 2 ml of a 1% Evans blue through an intravenous route. Subsequently, an excess of pentobarbital was intravenously injected to kill the rats, after which the heart was removed and then, deprived of the right ventricle and both atria. The left ventricle was cut horizontally to the heart apex into 5 or 6 slices which were weighed. From the surface of each slice, images were input with the aid of a Hi-scope into a computer installed with an image analyzing program (Image Pro Plus). From the images input into the computer, the area of the normal blood stream tissue region which appeared blue in a computer monitor and the area which appeared colorless were measured. The percentage of the colorless area to the total area of each slice was calculated and multiplied by the weight of each slice to determine the area at risk (AAR) of each slice. […]

[2] = tested on: ischemic heart models of beagle dogs; experiment: Heart protective (anti-ischemic) activity in ischemic heart models of anesthetized beagle dogs; type: in vivo; details: total dose 2 mg/kg infused i.v. over 40 min, 90 min occlusion, 5 h reperfusion
Description: In order to determine whether the compounds of the formula 1 are protective for the ischemic hearts of larger animals, experiments determining the anti-ischemic effects of the compounds on beagle dogs were conducted as follows. The experiments on beagle dogs followed the method of Grover et al.' (G. J. Grover et al., J. Cardiovasc. Pharmacol. 25, 40 (1995)).
After being anesthetized by an intravenous injection of pentobarbital at a dose of 35 mg/kg, male beagle dogs (8-12 kg) were further infused with pentobarbital sodium at a dose of 3-4 mg/kg through the right cephalic vein throughout the experiments, so as to keep the anesthesia constant. […] The heart rate was measured by a tachometer, such as that manufactured by Gould Inc., OH, U.S.A., identified as Biotachometer. In addition, all of the changes occurring during the experiment were continuously recorded through the Gould 2000 chart recorder, manufactured by Gould Inc.
The fifth intercostal space was incised to open the thorax and the LAD was separated from its surrounding tissues. […] The LAD part upstream of the silk ligature was isolated from adjacent tissues and the blood flow was measured quantitatively. […] Using polygraph such as Grass Model 7E, the electrocardiogram was measured and read (Lead II). […]

rat aorta = experiment: Vasodilation effects on isolated blood vessels of rats (methoxamine-constricted aortic rings); type: cell-based; details: isolated rat aorta constricted with methoxamine (3 uM); read-out: Vasodilation Activity (in Vitro, rat aorta) (IC50)
From the text: Male Sprague-Dawly rats (350-450 g, obtained from the Experimental Animal Team of the Korea Research Institute of Chemical Technology) were knocked unconscious by hitting the occipital region, sacrificed by cervical dislocation, and underwent thoracotomy. After being quickly removed, the thoracic aorta was deprived of the adipose tissue and cut into aortic rings of 3 mm width. The aorta was lightly rubbed with a modified Krebs Henseleit buffer (Physiological Salt Solution, PSS) soaked cotton club to remove the inner epithelial layer therefrom. While being suspended in an organ bath containing a physiological buffer, the vascular tissue was allowed to equilibrate under a resting tension of 2 g and then, stand for 1 hour at 37 °C for stabilization with a supply of a carbogen consisting of 95% O2-5% CO2.
Thereafter, the vascular tissue was constricted with 10^-5 M phenylephrine and washed several times with PSS and this procedure was repeated again to ensure the stable reacivity of vascular smooth muscle to repetitive constriction/dilatation.
In addition, 3x10^-6 M methoxamine was used to induce an intensive constriction in the vascular smooth muscle. When the vasoconstriction induced by the methoxamine reached and maintained a maximum, test compounds and controls were cumulatively added to the organ baths in concentrations of 1, 3, 10 and 30 uM so as to induce vasodilatation. As for the controls, they were Cromakalim and BMS-180448 (the compounds of the chemical formula 2), both known to be the first generation KATP activator with potent vasodilatation and cardioprotection effects.
Following the addition of the drugs, the change in the maximal constriction induced by methoxamine was calculated to plot a concentration-dilation response curve. Through a linear regression analysis, IC50, the drug concentration at which the vascular tissue is 50% dilated, was obtained for each drug.

[3] = tested on: Rat aortic smooth muscle cells; experiment: Inhibition of proliferation of vascular smooth muscle cells ([3H]-thymidine incorporation into DNA); type: cell-based; details: [^3H]-thymidine into DNA; angiotensin II (10^-7M) stimulated = 100; 72 hr
Description: Inhibitory effects on cell proliferation was evaluated by measurement of incorporation of [^3H]-thymidine into DNA. Rat aortic smooth muscle cells were grown in 24 well plate for 3 days to near confluence in DMEM containing 10% FBS, then DMEM containing FBS was washed out. Cells were cultured again in DMEM without serum for 48 hr to be quiescent. […] During the last 4 hours of incubation, [^3H]-thymidine (1 uCi/ml) was added. […] The samples were filtered through glass microfiber filter (GF/B. Whatmann) under vacuum. After washing the filters 3 times with 2 ml of an aqueous solution of 5% TCA, the radioactivity incorporated into DNA was counted by Liquid Scintillation Counter (Packard, TRI-CARB, 2100TR), then calculated incorporation % of [^3H]-thymidine.

[4] = Acute oral toxicity test in rats; details: rat, in vivo, single oral dose in 0.5% methyl cellulose, read-out: lethal dose (LD50) for oral administration
Description: In this test six-week old SPF SD rats were used with two rats assigned to each group. The compounds of examples 1, 2, 3, 5, 7, 8, 9, 10, 13, 14, 15, 19, 22, 23, 24, 25, 26, 28, 29, 30, 31, 32, 33, 34, 35, 36, 37, 38, 39, 40, 41, 44, 46, 47, 48, 49, 51, 52, 57, 58, 60, 62, 64, 67, 68, 69, 71 and 72 were suspended in 0.5% methyl cellulose, respectively, and administered orally at a single dose of 1 g/kg using a ball-tipped needle. The dosing volume was 10 ml/kg. […] All survivors at the end of the observation period underwent laparotomy under ether anesthesia and the blood samples were taken from the abdominal aorta for hematological tests and biochemical analysis. After sacrificing the animals, autopsy was performed for macroscopic observation of the organs and tissues. Tissue samples of vital organs from macroscopic legion were removed and fixed in 10% neutral buffered formalin solution, then processed by standard procedures for histopathology and examined under light microscope. There were no significant changes in clinical symptoms, body weight and mortalities. Also in hematology, serum chemistry parameters and macroscopic observation, no drug-related changes were observed.

Row | IC50 (rat aorta) [nM] | Structure (SMILES) | Anti-ischemic Activity (in vivo, rats) (0.3 mg/kg i.v.) IZ/AAR (%) [1] [%] | Anti-ischemic Activity (in vivo, dogs) (2 mg/kg/40 i.v.) min,i.v.) IZ/AAR (%) [2] [%] | Incorporation % [3] [%] | LD50 [4] [mg/kg]
1 | 1380 | CC1(C)Oc2ccc(C#N)cc2[C@@H](NC(=NC#N)Nc2ccc(Cl)cc2)[C@@H]1O [BMS-180448, reference compound] | 39.14 | 38.02 | – | –
2 | – | COC(OC)[C@]1(C)Oc2ccc([N+](=O)[O-])cc2[C@H](NC(=NC#N)NCc2ccccc2)[C@H]1O [Example 22, (2R, 3R, 4S)-N''-cyano-N (6-nitro-3,4-dihydro-3-hydroxy-2-methyl-2-dimethoxy methyl-2H-benzopyran-4-yl)-N'-benzylguanidine] | – | – | 64.0 | > 1000
